Source: publication PMC5458078, “Global mapping of CARM1 substrates defines enzyme specificity and substrate recognition” (Nature Communications, 2017)

System: CARM1
Assay: 96-spot peptide array in vitro methylation, autoradiography
Format: biochemical, human
Details: 96-spot array, 3H-SAM, 30 °C
Excerpt: Having corroborated the ability of CARM1 to methylate most of the detected substrates, we designed an additional 96-spot peptide array (Fig. 2e and Supplementary Data 3) with two purposes in mind: (1) to examine the significance of surrounding amino acids on CARM1-directed arginine dimethylation, particularly those mutated in human cancers; and (2) to measure PRMT specificity towards respective substrates. The selected sequences encompassed a mixture herein identified and predicted CARM1 substrates (in light blue) and representative cancer-relevant substrates, accompanied by the sequences harbouring mutations detected in human patients[38] (in blue). We also arbitrarily mutated the recognition sequence surrounding R1064 on BAF155 (ref. [20])—the known CARM1 methylation site—to assess the significance of surrounding amino-acid residues to CARM1 activity (four sequence in dark blue). The array also featured 17 known substrates of PRMT1 (in grey), 10 substrates of PRMT5 (in purple) and 4 substrates of PRMT6 (in pink) as positive controls for these enzymes.
The FL and N-terminal domain-deleted version of human CARM1 cDNAs, and other PRMT FL cDNAs were cloned into pFN21K Halo Tag CMV Flexi mammalian expression vector (Promega, Madison, WI) using the unique Sgfl and Pmel site[55]. To express the protein, DNA constructs were transiently transfected into HEK293T CARM1 KO cells in 15 cm dishes using transIT-LT1 reagent (Mirus Bio, Madison, WI) according to the manufacturer's protocol. Proteins were allowed to express for 48 h. Cell pellets were then collected and lysed in lysis buffer (50 mM HEPES, pH 7.5, 150 mM NaCl, 0.005% NP-40, 0.5 mM EDTA, supplemented with 1 × protease inhibitor cocktail before use). The cells were sonicated on ice using a Branson Sonifier 450 with a microtip at 35% amplitude (10 s on, 30 s off, 6 cycles). The crude lysate was cleared by centrifugation (15,000 r.p.m., 4 °C, 20 min). The cleared lysate was then mixed with pre-washed Halo Link resin (60 μl resin for a 15 cm dish) and incubated with rotation at room temperature for 2 h. The resin was then washed twice with lysis buffer, once with lysis buffer supplemented with 1 M urea and twice with lysis buffer. The recombinant proteins were then eluted with cleavage buffer (lysis buffer supplemented with 1 mM DTT and 20 μg ml^−1 TEV protease) with rotation at room temperature for 2 h. The resin was centrifuged at 3,000 r.p.m. for 5 min, and the supernatant containing the cleaved protein was collected and protein concentration was determined using the Bradford assay (Thermo Scientific, Rockford, IL). Protein purity was assessed by running SDS–PAGE and Coomassie Blue staining.
Purified recombinant enzyme and substrates were incubated in methylation buffer (50 mM Tris-HCl, pH 8.0, 100 mM NaCl and 0.5 mM EDTA) for 1–4 h at 30 °C in the presence of 1 μl radioactive S-adenosyl-L-[methyl-^3H] methionine. The reaction was stopped by adding 5 × SDS sample buffer and boiling at 99 °C for 5 min. Proteins were resolved by SDS–PAGE. The gel was stained with Coomassie Brilliant Blue (Coomassie Brilliant Blue R-250 0.05% w/v: methanol 50%: acetic acid 10%: H2O 40%) followed by de-staining with dye-free buffer. Fixed gel was then soaked with amplify (GE Healthcare, Waukesha, WI) with gentle shaking at room temperature for 30 min before drying on a Whatman paper at 80 °C and exposing to an X-ray film in dark at −80 °C. Protein methylation was detected by autoradiography.
For methylation assays using the peptide array, 16 or 20 μg purified recombinant CARM1 or same molar concentration of the other PRMTs (for 96-spot and 192-spot arrays, respectively) was mixed well with 40 μl radioactive S-adenosyl-L-[methyl-^3H] methionine, 80 μl 5 × methylation buffer and ddH2O to achieve a final volume of 200 or 400 μl reaction (for 96-spot and 192-spot arrays, respectively). The Celluspot peptide arrays were customized and produced by Intavis Bioanalytical Instruments, Germany. […]

Sequence	Methylation by CARM1 of mutated peptide vs wild-type sequence
DPYRPVRLQMQKLPT [MED12 (R1862) P1864Q]	significantly reduced methylation by CARM1
PGNILAPRVPLTAPN [BAF155 (R1064) G1062A]	nearly abolished methylation by CARM1
PGNILGARVPLTAPN [BAF155 (R1064) P1063A]	nearly abolished methylation by CARM1
PGNILGPRVALTAPN [BAF155 (R1064) P1066A]	nearly abolished methylation by CARM1
VQSLCDTRFHFQQRA [TET2 (R680) G678D]	significantly reduced methylation by CARM1
YGSQTPQRCPMTMQG [ARID1A (R429) Y430C]	significantly reduced methylation by CARM1
YGSQTPQRYQMTMQG [ARID1A (R429) P431Q]	significantly reduced methylation by CARM1
